These results are taken from BindingDB's records for doi:10.1111/j.1747-0285.2010.01036.x (Ataturk University, 2010).

This assay has as its target Serum paraoxonase/arylesterase 1 (Homo sapiens, UniProt P27169). The assay can be described thus: In Vitro Inhibtion Assay. The protocol: The inhibitory effects of six sulfonamide derivatives was examined against the purified enzyme hPON1 and were tested in a triplicate experiment in five different concentrations (0.15, 0.3, 0.45, 0.6, and 0.75 mM).

SMILES strings stand for the structures. pIC50, pKi: −log10 of the molar value.

Serum paraoxonase/arylesterase 1, sequence (P27169 whole entry): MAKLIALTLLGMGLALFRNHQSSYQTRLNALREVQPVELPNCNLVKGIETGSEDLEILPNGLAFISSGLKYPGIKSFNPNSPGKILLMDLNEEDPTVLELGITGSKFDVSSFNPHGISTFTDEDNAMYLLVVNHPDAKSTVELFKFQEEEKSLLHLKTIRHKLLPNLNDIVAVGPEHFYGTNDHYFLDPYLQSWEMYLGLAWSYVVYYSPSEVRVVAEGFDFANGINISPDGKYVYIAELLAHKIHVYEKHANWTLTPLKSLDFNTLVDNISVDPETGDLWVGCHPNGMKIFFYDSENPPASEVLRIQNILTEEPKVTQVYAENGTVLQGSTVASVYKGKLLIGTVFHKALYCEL

The term pIC50 denotes the IC50 on a negative log10 scale, so that one unit is a factor of ten. A high value points to a low IC50. Broadly, the pKi is the Ki on a negative log10 scale, so that one unit is a factor of ten. A lower pKi goes with a large Ki. In the case of `NS(=O)(=O)c1cc(C(=O)O)c(NCc2ccco2)cc1Cl` [4-chloro-2-[(furan-2-ylmethyl)amino]-5-sulfamoylbenzoic acid], the pIC50 was 3.44 and the pKi was 3.15.

As to `CC(=O)Nc1nnc(S(N)(=O)=O)s1` [Acetazolamide, AAZ], the pIC50 was 3.10 and the pKi was 3.13.

The molecule `NCc1ccc(S(N)(=O)=O)cc1` [aromatic sulfonamide compound 6] gave a pIC50 of 3.72 and a pKi of 3.47.

`Nc1nnc(S(N)(=O)=O)s1` [1,3,4-thiadiazole-2-sulfonamide 15] showed a pIC50 of 2.91 and a pKi of 2.70.

`CC(=O)NS(=O)(=O)c1ccc(N)cc1` [Cetamide] gave a pIC50 of 3.74 and a pKi of 4.07.
